Results: patent US20060276498A1 (Wyeth, priority 2005, published 2006)

Legend:
human Cot/Tpl2 kinase = biological target: T1, human Cot/Tpl2 kinase (Homo sapiens, UniProt P41279); test: Tpl2/Cot kinase assay, GST-MEK1 phosphorylation detected by ELISA (DELFIA Eu); assay type: biochemical; conditions: Table 2; additional representative compounds
T1 construct: human Cot/Tpl2 kinase construct encoding residues 30-398; 6His (N); made in house; host or cells: Sf9 insect cells (baculovirus system, BD Biosciences)

Tpl2 = Tpl2 (Homo sapiens, UniProt P41279); conditions: background statement; cited from earlier work
Sequence of Tpl2 (P41279 whole entry): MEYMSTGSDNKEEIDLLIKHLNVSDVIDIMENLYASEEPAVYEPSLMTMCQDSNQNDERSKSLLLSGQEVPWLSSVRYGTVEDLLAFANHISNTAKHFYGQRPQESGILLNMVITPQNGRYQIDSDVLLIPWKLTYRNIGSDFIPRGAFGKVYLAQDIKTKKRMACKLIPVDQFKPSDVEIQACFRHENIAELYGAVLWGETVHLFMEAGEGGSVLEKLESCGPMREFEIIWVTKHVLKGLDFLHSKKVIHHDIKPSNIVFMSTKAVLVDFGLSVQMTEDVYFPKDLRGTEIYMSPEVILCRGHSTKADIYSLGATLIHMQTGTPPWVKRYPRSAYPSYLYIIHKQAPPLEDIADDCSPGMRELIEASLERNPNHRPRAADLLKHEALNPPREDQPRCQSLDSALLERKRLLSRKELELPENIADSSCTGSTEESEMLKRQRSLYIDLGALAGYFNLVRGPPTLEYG

T1 sequence (P41279 30-398): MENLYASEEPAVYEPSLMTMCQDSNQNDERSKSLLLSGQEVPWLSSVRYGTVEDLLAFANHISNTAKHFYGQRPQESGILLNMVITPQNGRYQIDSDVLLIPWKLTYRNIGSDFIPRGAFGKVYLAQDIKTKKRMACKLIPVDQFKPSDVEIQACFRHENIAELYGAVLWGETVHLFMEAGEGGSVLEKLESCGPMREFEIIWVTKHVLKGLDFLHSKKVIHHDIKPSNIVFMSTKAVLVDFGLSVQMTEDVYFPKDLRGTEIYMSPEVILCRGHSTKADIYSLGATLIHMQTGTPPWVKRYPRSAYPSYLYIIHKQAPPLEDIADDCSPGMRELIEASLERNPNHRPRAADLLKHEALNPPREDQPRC

Structure (SMILES): N#Cc1cnc2cnc(NCc3cccnc3)cc2c1NC1CCCCC1 [Example 114, 4-(cyclohexylamino)-6-[(pyridin-3-ylmethyl)amino]-1,7-naphthyridine-3-carbonitrile]
- IC50 (human Cot/Tpl2 kinase): 470 nM

Structure (SMILES): CC(Nc1cc2c(Nc3ccc(F)c(Cl)c3)c(C#N)cnc2cn1)c1ccccc1 (centres unmarked) [Example 115, 4-[(3-chloro-4-fluorophenyl)amino]-6-[(1-phenylethyl)amino]-1,7-naphthyridine-3-carbonitrile]
- IC50 (human Cot/Tpl2 kinase): > 40000 nM

Structure (SMILES): N#Cc1cnc2cnc(NCc3cccnc3)cc2c1NC1CCNCC1 [Example 116, 4-(piperidin-4-ylamino)-6-[(pyridin-3-ylmethyl)amino]-1,7-naphthyridine-3-carbonitrile]
- IC50 (human Cot/Tpl2 kinase): > 40000 nM

Structure (SMILES): N#Cc1cnc2cnc(NCCN3CCN(Cc4ccccc4)CC3)cc2c1Nc1ccc(F)c(Cl)c1 [Example 117, 6-(2-(4-benzylpiperazin-1-yl)ethylamino)-4-(3-chloro-4-fluorophenylamino)-1,7-naphthyridine-3-carbonitrile]
- IC50 (human Cot/Tpl2 kinase): 2400 nM

Structure (SMILES): CC(C)(Nc1cc2c(Nc3ccc(F)c(Cl)c3)c(C#N)cnc2cn1)c1ccccc1 [Example 118, 4-[(3-chloro-4-fluorophenyl)amino]-6-[(1-methyl-1-phenylethyl)amino]-1,7-naphthyridine-3-carbonitrile]
- IC50 (human Cot/Tpl2 kinase): 1200 nM

Structure (SMILES): N#Cc1cnc2cnc(NCc3ccncc3)cc2c1Nc1ccc(F)c(Cl)c1 [Example 119, 4-(3-chloro-4-fluorophenylamino)-6-(pyridin-4-ylmethylamino)-1,7-naphthyridine-3-carbonitrile]
- IC50 (human Cot/Tpl2 kinase): 31 nM

Structure (SMILES): N#Cc1cnc2cnc(NCCc3ccc(S(N)(=O)=O)cc3)cc2c1Nc1ccc(F)c(Cl)c1 [Example 120, 4-(2-(4-(3-chloro-4-fluorophenylamino)-3-cyano-1,7-naphthyridin-6-ylamino)ethyl)benzenesulfonamide]
- IC50 (human Cot/Tpl2 kinase): 230 nM

Structure (SMILES): N#Cc1cnc2cnc(NCc3cccc(Br)c3)cc2c1Nc1ccc(F)c(Cl)c1 [Example 121, 6-[(3-bromobenzyl)amino]-4-[(3-chloro-4-fluorophenyl)amino]-1,7-naphthyridine-3-carbonitrile]
- IC50 (human Cot/Tpl2 kinase): 430 nM

Structure (SMILES): N#Cc1cnc2cnc(NCCN3CCCCC3)cc2c1Nc1ccc(F)c(Cl)c1 [Example 122, 4-[(3-chloro-4-fluorophenyl)amino]-6-[(2-piperidin-1-ylethyl)amino]-1,7-naphthyridine-3-carbonitrile]
- IC50 (human Cot/Tpl2 kinase): 2500 nM

Structure (SMILES): N#Cc1cnc2cnc(NCc3ccccn3)cc2c1Nc1ccc(F)c(Cl)c1 [Example 123, 4-(3-chloro-4-fluorophenylamino)-6-(pyridin-2-ylmethylamino)-1,7-naphthyridine-3-carbonitrile]
- IC50 (human Cot/Tpl2 kinase): 130 nM

Structure (SMILES): COc1ccccc1CNc1cc2c(Nc3ccc(F)c(Cl)c3)c(C#N)cnc2cn1 [Example 124, 4-[(3-chloro-4-fluorophenyl)amino]-6-[(2-methoxybenzyl)amino]-1,7-naphthyridine-3-carbonitrile]
- IC50 (human Cot/Tpl2 kinase): 370 nM

Structure (SMILES): CS(=O)(=O)c1ccc(CNc2cc3c(Nc4ccc(F)c(Cl)c4)c(C#N)cnc3cn2)cc1 [Example 125, 4-[(3-chloro-4-fluorophenyl)amino]-6-{[4-(methylsulfonyl)benzyl]amino}-1,7-naphthyridine-3-carbonitrile]
- IC50 (human Cot/Tpl2 kinase): 23 nM

Structure (SMILES): N#Cc1cnc2cnc(NCc3c(Cl)cccc3Cl)cc2c1Nc1ccc(F)c(Cl)c1 [Example 126, 4-[(3-chloro-4-fluorophenyl)amino]-6-[(2,6-dichlorobenzyl)amino]-1,7-naphthyridine-3-carbonitrile]
- IC50 (human Cot/Tpl2 kinase): 24600 nM

Structure (SMILES): N#Cc1cnc2cnc(NCc3c(Cl)cccc3Cl)cc2c1NCc1c(Cl)cccc1Cl [Example 127, 4,6-bis[(2,6-dichlorobenzyl)amino]-1,7-naphthyridine-3-carbonitrile]
- IC50 (human Cot/Tpl2 kinase): > 40000 nM

Structure (SMILES): N#Cc1cnc2cnc(F)cc2c1Nc1ccc(OC(F)(F)F)cc1 [Example 128, 6-fluoro-4-{[4-(trifluoromethoxy)phenyl]amino}-1,7-naphthyridine-3-carbonitrile]
- IC50 (human Cot/Tpl2 kinase): > 40000 nM

Structure (SMILES): CCN1CCC[C@H]1CNc1cc2c(NC3CCCC3)c(C#N)cnc2cn1 [Example 129, 4-(cyclopentylamino)-6-({[(2S)-1-ethylpyrrolidin-2-yl]methyl}amino)-1,7-naphthyridine-3-carbonitrile]
- IC50 (human Cot/Tpl2 kinase): 2800 nM

Structure (SMILES): CC(C)(C)Nc1c(C#N)cnc2cnc(NCc3ccc(S(C)(=O)=O)cc3)cc12 [Example 130, 4-(tert-butylamino)-6-{[4-(methylsulfonyl)benzyl]amino}-1,7-naphthyridine-3-carbonitrile]
- IC50 (human Cot/Tpl2 kinase): 4600 nM

Structure (SMILES): C[C@@H](Nc1cc2c(N[C@H](C)c3ccccc3)c(C#N)cnc2cn1)c1ccccc1 [Example 131, 4,6-bis{[(1R)-1-phenylethyl]amino}-1,7-naphthyridine-3-carbonitrile]
- IC50 (human Cot/Tpl2 kinase): 560 nM

Structure (SMILES): CS(=O)(=O)c1ccc(CNc2cc3c(NCc4ccc(S(C)(=O)=O)cc4)c(C#N)cnc3cn2)cc1 [Example 132, 4,6-bis{[4-(methylsulfonyl)benzyl]amino}-1,7-naphthyridine-3-carbonitrile]
- IC50 (human Cot/Tpl2 kinase): 16900 nM

Structure (SMILES): C[C@@H](Nc1cc2c(NC3CCCCCC3)c(C#N)cnc2cn1)c1ccccc1 [Example 133, 4-(cycloheptylamino)-6-{[(1R)-1-phenylethyl]amino}-1,7-naphthyridine-3-carbonitrile]
- IC50 (human Cot/Tpl2 kinase): 920 nM

Structure (SMILES): CCC(C)(C)Nc1c(C#N)cnc2cnc(NCc3cccnc3)cc12 [Example 135, 4-[(1,1-dimethylpropyl)amino]-6-[(pyridin-3-ylmethyl)amino]-1,7-naphthyridine-3-carbonitrile]
- IC50 (human Cot/Tpl2 kinase): 100 nM

Structure (SMILES): CN(c1c(C#N)cnc2cnc(F)cc12)C1CCCCCC1 [Example 136, 4-[cycloheptyl(methyl)amino]-6-fluoro-1,7-naphthyridine-3-carbonitrile]
- IC50 (human Cot/Tpl2 kinase): 360 nM

Structure (SMILES): C[C@@H](Nc1cc2c(N(C)C3CCCCCC3)c(C#N)cnc2cn1)c1ccccc1 [Example 137, 4-[cycloheptyl(methyl)amino]-6-{[(1R)-1-phenylethyl]amino}-1,7-naphthyridine-3-carbonitrile]
- IC50 (human Cot/Tpl2 kinase): > 40000 nM

Structure (SMILES): C#CC(C)(C)Nc1c(C#N)cnc2cnc(NCc3cccnc3)cc12 [Example 138, 4-[(1,1-dimethylprop-2-ynyl)amino]-6-[(pyridin-3-ylmethyl)amino]-1,7-3-carbonitrile]
- IC50 (human Cot/Tpl2 kinase): > 40000 nM

Structure (SMILES): Cn1nc(C(C)(C)C)cc1Nc1c(C#N)cnc2ccc(N)cc12 [Example 139, 6-amino-4-[(3-tert-butyl-1-methyl-1H-pyrazol-5-yl)amino]quinoline-3-carbonitrile]
- IC50 (human Cot/Tpl2 kinase): 270 nM

Structure (SMILES): N#Cc1cnc2cnc(Nc3c[nH]cn3)cc2c1Nc1ccc(F)c(Cl)c1 [Example 140, 4-[(3-chloro-4-fluorophenyl)amino]-6-{[4(5)imidazolyl]amino}-1,7-naphthyridine-3-carbonitrile]
- IC50 (human Cot/Tpl2 kinase): 79 nM

Structure (SMILES): CCC(C)(C)Nc1c(C#N)cnc2cnc(F)cc12 [Example 141, 4-[(1,1-dimethylpropyl)amino]-6-fluoro-1,7-naphthyridine-3-carbonitrile]
- IC50 (human Cot/Tpl2 kinase): > 40000 nM

Structure (SMILES): C#CC1(Nc2c(C#N)cnc3cnc(F)cc23)CCCCC1 [Example 142, 4-[(1-ethynylcyclohexyl)amino]-6-fluoro-1,7-naphthyridine-3-carbonitrile]
- IC50 (human Cot/Tpl2 kinase): 28000 nM

Structure (SMILES): CC(C)(C)Nc1cc2c(Nc3ccc(F)c(Cl)c3)c(C#N)cnc2cn1 [Example 143, 6-(tert-butylamino)-4-[(3-chloro-4-fluorophenyl)amino]-1,7-naphthyridine-3-carbonitrile]
- IC50 (human Cot/Tpl2 kinase): > 40000 nM

Structure (SMILES): N#Cc1cnc2cnc(NC3CCCCCC3)cc2c1Nc1ccc(F)c(Cl)c1 [Example 144, 4-[(3-chloro-4-fluorophenyl)amino]-6-(cycloheptylamino)-1,7-naphthyridine-3-carbonitrile]
- IC50 (human Cot/Tpl2 kinase): 5200 nM

Structure (SMILES): N#Cc1cnc2cnc(NCc3cccnc3)cc2c1NCc1cccnc1 [Example 145, 4,6-bis(pyridin-3-ylmethylamino)-1,7-naphthyridine-3-carbonitrile]
- IC50 (human Cot/Tpl2 kinase): > 40000 nM

Structure (SMILES): CN[C@@H]1C[C@H]2O[C@@](C)([C@@H]1OC)n1c3ccccc3c3c4c(c5c6ccccc6n2c5c31)C(=O)NC4 [staurosporine]
- inhibition of Tpl2 (Tpl2): not inhibited
